Measured values as given in patent publication US7723070B2, “Overexpression of aminoacyl-tRNA synthetases for efficient production of engineered proteins containing amino acid analogues” (California Institute of Technology, priority 2000, dated 2010).

Assays:
[1] = tested on: B834(DE3)/pQE15-MRS/pREP4; type: cell-based, E. coli
Description: A gene encoding a mutant MetRS was removed from plasmid pBSM547W305F (D. Fourmy, Y. Mechulam, S. Brunie, S. Blanquet, G. Fayat, FEBS Lett. 1991, 292, 259-263) by treatment with restriction enzymes Sac I and Kpn I. The Sac I/Kpn I fragment (2450 bp) was ligated into the cloning vector pUC19-Nhelink, which was constructed to permit the cohesive ends of the mutant MetRS gene to be changed to Nhe I. The MetRS gene with Nhe I cohesive ends was then ligated into the unique Nhe I site of the plasmid pQE15 (Qiagen, Inc., Santa Clarita, Calif., USA) to yield plasmid pQE15-W305F (FIG. 20) (SEQ ID NO.: 2).
Plasmid DNA from all B834(DE3)/pQE15-MRS/pREP4 cultures used for protein expression experiments was sequenced to confirm that it encoded wild-type MetRS. […] The expression plasmid also encodes an N-terminal hexahistidine sequence for mDHFR which permits purification of the target protein by immobilized metal chelate affinity chromatography (The Qiagen Expressionist, 1992, p. 45). Furthermore, mDHFR contains 8 methionine residues which can be replaced by methionine analogues. A control bacterial host, which produces only mDHFR and normal cellular levels of MetRS, was prepared by transforming B834(DE3) with pREP4 and pQE15.
Methionine analogues were synthesized via alkylation of diethylacetamidomalonate, as previously described (As described in Example I, infra; J. C. M. van Hest, D. A. Tirrell, FEBS Lett. 1998, 428, 68-70). Cultures of B834(DE3)/pQE15-MRS/pREP4 or B834(DE3)/pQE15/pREP4 or CAG18491/pQE15-MRS/pREP4 or CAG18491/pQE15/pREP4 in M9AA media were grown to an optical density of 0.90, and the cells were sedimented by centrifugation. The M9AA medium was prepared by supplementing sterile M9 medium with […] of each of the amino acids, 1 mM MgSO4, 0.2 wt % glucose, 1 mg/ml thiamine chloride, and […] calcium chloride. The antibiotics ampicillin and kanamycin were added at concentrations of 200 mg/l and 35 mg/l, respectively.
Cells were washed three times with M9 salts and resuspended to an optical density of 0.90 in M9 test media containing 19 amino acids plus 1) neither methionine nor analogue (negative control); 2) methionine (60 mg/liter, positive control); or 3) an analogue of interest (60 mg/liter). To test the effect of increasing the level of supplementation of the analogues, a set of experiments was also conducted in which the medium was supplemented with 500 mg/liter of methionine or the amino acid analogue. Expression of mDHFR was induced by addition of 0.4 mM isopropyl β-D-thiogalactopyranoside (IPTG), and protein synthesis was monitored after 4.5 hours.

[2] = biological target: T1, methionyl tRNA synthetase (MetRS) (Escherichia coli, UniProt P00959); settings: cited from earlier work
T1 sequence (P00959 1-548 limits assumed): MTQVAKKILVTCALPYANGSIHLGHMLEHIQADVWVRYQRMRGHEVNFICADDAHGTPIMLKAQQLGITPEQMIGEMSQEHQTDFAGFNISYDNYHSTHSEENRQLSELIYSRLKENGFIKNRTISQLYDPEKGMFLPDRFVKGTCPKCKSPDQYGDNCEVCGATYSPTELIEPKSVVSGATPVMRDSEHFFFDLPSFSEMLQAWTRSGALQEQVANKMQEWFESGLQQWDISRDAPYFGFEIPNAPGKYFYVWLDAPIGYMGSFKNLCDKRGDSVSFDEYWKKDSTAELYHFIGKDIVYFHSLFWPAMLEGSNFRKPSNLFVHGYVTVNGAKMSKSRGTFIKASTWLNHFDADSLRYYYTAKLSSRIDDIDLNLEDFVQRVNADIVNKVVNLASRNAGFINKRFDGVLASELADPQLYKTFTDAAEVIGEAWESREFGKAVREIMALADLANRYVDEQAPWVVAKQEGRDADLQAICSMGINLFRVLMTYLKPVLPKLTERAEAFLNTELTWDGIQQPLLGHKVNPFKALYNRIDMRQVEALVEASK

E. coli cells = settings: antagonist for methionine; cited from earlier work

**Q.** With `CSCC[C@H](N)C(=O)O` [Analogue 1, L-methionine, reference compound] as the molecule, how does the Protein yields ([1]; supplemented cultures) read?
**A.** approximately 35 mg/liter

**Q.** And the “kcat, literature value” [2]?
**A.** 13.5 s⁻¹

**Q.** What about the Km ([2]; read-out: Km, previously reported, literature value) of the same molecule?
**A.** 24 ± 2 µM

**Q.** With `C/C=C/CC(N)C(=O)O` (racemic) [Analogue 5, trans-2-amino-4-hexenoic acid] as the molecule, how does the “incorporation of the analogue at the initiator position (N-terminal sequencing)” value [1] read?
**A.** 96±2%

**Q.** And the “mDHFR produced relative to cultures supplemented with methionine” value [1]?
**A.** 23%

**Q.** What about the “overall extent of incorporation of the analogue (amino acid analysis)” value [1] of the same molecule?
**A.** 91±2%

**Q.** And the “replacement of methionine (integration of NMR spectrum)” value [1]?
**A.** 90±6%

**Q.** What about the “mDHFR expression (SDS-PAGE)” value ([1]; 60 mg/L) of the same molecule?
**A.** strong induction of mDHFR

**Q.** What about the “methionine content by amino acid analysis” value ([1]; expected value 3.8 mol %) of the same molecule?
**A.** 0.3 mol %

**Q.** With `C/C=C\CC(N)C(=O)O` (racemic) [Analogue 4, cis-2-amino-4-hexenoic acid] as the molecule, how does the “effect on growth of E. coli cells” value (E. coli cells) read?
**A.** inhibiting the growth
